In patent publication US6180677A, “Tyrosine-derived compounds as calcium channel antagonists” (Warner-Lambert Company, priority 1999, dated 2001):
Counter-ions that a name gives are not always drawn.

How the values were obtained:
[1] = target: T1, N-type Ca^2+ channel (Homo sapiens, UniProt Q00975); assay: N-type Ca2+ channel blocking potency in IMR-32 cells using the fluorescent Ca2+ indicator Indo-1; assay type: cell-based; conditions: for IC50: K+-stimulated Ca2+ flux, 5 μM nitrendipine to block L-type channels, read-out: IMR32 IC50; for IMR32 % @ 1: at 1 μM; for IMR32 % @ 1 / IMR32 % @ 10: 5 μM nitrendipine; for IMR32 % @ 10: at 10 μM
T1 construct: host or cells: IMR-32 human neuroblastoma cells, differentiated with dibutyryl cAMP and bromodeoxyuridine
Experimental: Measurement of N-type Ca^2+ Channel Blocking Potencies of Compounds in IMR-32 Cells Using the Fluorescent Ca^2+ Indicator Indo-1
IMR-32 cells are a human tumoral cell line of neural origin. […] Calcium flux into these cells may be induced by stimulation with elevated potassium concentrations. The L-channel component of calcium flux may be blocked by adding 5 μM nitrendipine. The remaining component of calcium entry into the IMR-32 cells is due to calcium flux through N-type calcium channels. Intracellular calcium concentrations are measured using the fluorescent calcium indicator Indo-1. The effect of drug concentration on calcium uptake is studied.
The IMR-32 cell line was obtained from the American Type Culture Collection (Rockville, Md.). Cells were grown in Eagle's Minimum Essential Medium with Earle's salts supplemented with 10% fetal bovine serum, 2 mM L-Gln and antibiotic/antimicotic mixture (Gibco). At approximately 80% confluency, differentiation was induced by the addition of 1 mM dibutyryl cAMP and 2.5 μM bromodeoxyuridine to the medium. After 7 to 13 days of differentiation, cells were detached using 0.5 mM EDTA and loaded with 5 μM Indo-1 acetoxymethyl ester (Molecular Probes, Eugene, Oreg.) at […] for 45 minutes. Loaded cells were washed twice, resuspended (~10^7 cells/mL) in assay buffer (10 mM HEPES/Tris pH 7.4 in Hank's Balanced Salt Solution without bicarbonate or phenol red containing 0.5% bovine serum albumin) and kept on ice until use. Fluorescence measurements were carried out in a Photon Technology International (PTI, South Brunswick, N.J.) Model RF-F3004 spectrofluorometer with dual emission monochromators using excitation at 350 nm and emission at 400 and 490 nm. The instrument was equipped with a thermostated cuvette holder with stirring capabilities, as well as with a computer-controlled pump that allowed for reagent addition during measurement. Instrument control and data collection was done by PTI's OSCAR software running on an IBM compatible computer. Different concentrations of the test compounds (60 μL in dimethyl sulfoxide) were added to 5.94 mL of assay buffer containing approximately 3×10^6 loaded cells, and 5 μM Nitrendipine (in 30 μL EtOH) to block L-type Ca^2+ channels. Samples were incubated for 10 minutes at 30° C. and then aliquoted into three 10×10 mm disposable acrylic cuvettes. Emission signals at 400 and 490 nm were acquired from each cuvette at 30° C. for 50 seconds. At 20 seconds after the start of reading, cells were depolarized by the addition of 160 μL of stimulation solution (1 M KCl, 68 mM CaCl2) to the cuvette via the computer-controlled pump. Ratio of dual emission signals (400 nm/490 nm), which is proportional to intracellular Ca^2+ concentration, was plotted against time, and the difference between maximal response after stimulation and basal value (before stimulation) was determined. Values obtained in this way were plotted as a function of drug concentration. IC50 values of test compounds were calculated by fitting a four-parameter logistic function to the data using the least squared method.

[2] = system: DBA/2 mice; assay: Audiogenic seizure model in DBA/2 mice; assay type: in vivo; conditions: protected/tested
Experimental: Audiogenic Seizure Model in DBA/2 Mice
In Vivo Biological Protocol
A compound of the present invention was dissolved in water using 10% (weight/volume) Emulphor (GAF Corp., Wayne, N.J.) surfactant. Substances were administered by intravenous injection into the retro-orbital venous sinus. All testing was performed 15 minutes or 45 minutes after drug injection. All the male mice, 3 to 4 weeks old, were obtained from Jackson Laboratories, Bar Harbour, Me. Immediately before anticonvulsant testing, mice were placed upon a wire mesh, 4 inches square suspended from a steel rod. […] Any mouse falling from the wire mesh was scored as ataxic.
Mice were placed into an enclosed acrylic plastic chamber (21 cm height, approximately 30 cm diameter) with a high-frequency speaker (4 cm diameter) in the center of the top lid. An audio signal generator (Protek model B-810) was used to produce a continuous sinusoidal tone that was swept linearly in frequency between 8 kHz and 16 kHz once each 10 msec. The average sound pressure level (SPL) during stimulation was approximately 100 dB at the floor of the chamber. Mice were placed within the chamber and allowed to acclimatize for 1 minute. DBA/2 mice in the vehicle-treated group responded to the sound stimulus (applied until tonic extension occurred, or for a maximum of 60 seconds) with a characteristic seizure sequence consisting of wild running followed by clonic seizures, and later by tonic extension, and finally by respiratory arrest and death in 80% or more of the mice. In vehicle-treated mice, the entire sequence of seizures to respiratory arrest lasts approximately 15 to 20 seconds.
The incidence of all the seizure phases in the drug-treated and vehicle-treated mice was recorded, and the occurrence of tonic seizures were used for calculating anticonvulsant ED50 values by probit analysis. Mice were used only once for testing at each time and dose point.

[3] = 30 mg/kg IV, 15 minutes post treatment
[4] = 30 mg/kg IV, 45 minutes post treatment
[5] = 10 mg/kg IV, 15 minutes post treatment

T1 sequence (Q00975 whole entry): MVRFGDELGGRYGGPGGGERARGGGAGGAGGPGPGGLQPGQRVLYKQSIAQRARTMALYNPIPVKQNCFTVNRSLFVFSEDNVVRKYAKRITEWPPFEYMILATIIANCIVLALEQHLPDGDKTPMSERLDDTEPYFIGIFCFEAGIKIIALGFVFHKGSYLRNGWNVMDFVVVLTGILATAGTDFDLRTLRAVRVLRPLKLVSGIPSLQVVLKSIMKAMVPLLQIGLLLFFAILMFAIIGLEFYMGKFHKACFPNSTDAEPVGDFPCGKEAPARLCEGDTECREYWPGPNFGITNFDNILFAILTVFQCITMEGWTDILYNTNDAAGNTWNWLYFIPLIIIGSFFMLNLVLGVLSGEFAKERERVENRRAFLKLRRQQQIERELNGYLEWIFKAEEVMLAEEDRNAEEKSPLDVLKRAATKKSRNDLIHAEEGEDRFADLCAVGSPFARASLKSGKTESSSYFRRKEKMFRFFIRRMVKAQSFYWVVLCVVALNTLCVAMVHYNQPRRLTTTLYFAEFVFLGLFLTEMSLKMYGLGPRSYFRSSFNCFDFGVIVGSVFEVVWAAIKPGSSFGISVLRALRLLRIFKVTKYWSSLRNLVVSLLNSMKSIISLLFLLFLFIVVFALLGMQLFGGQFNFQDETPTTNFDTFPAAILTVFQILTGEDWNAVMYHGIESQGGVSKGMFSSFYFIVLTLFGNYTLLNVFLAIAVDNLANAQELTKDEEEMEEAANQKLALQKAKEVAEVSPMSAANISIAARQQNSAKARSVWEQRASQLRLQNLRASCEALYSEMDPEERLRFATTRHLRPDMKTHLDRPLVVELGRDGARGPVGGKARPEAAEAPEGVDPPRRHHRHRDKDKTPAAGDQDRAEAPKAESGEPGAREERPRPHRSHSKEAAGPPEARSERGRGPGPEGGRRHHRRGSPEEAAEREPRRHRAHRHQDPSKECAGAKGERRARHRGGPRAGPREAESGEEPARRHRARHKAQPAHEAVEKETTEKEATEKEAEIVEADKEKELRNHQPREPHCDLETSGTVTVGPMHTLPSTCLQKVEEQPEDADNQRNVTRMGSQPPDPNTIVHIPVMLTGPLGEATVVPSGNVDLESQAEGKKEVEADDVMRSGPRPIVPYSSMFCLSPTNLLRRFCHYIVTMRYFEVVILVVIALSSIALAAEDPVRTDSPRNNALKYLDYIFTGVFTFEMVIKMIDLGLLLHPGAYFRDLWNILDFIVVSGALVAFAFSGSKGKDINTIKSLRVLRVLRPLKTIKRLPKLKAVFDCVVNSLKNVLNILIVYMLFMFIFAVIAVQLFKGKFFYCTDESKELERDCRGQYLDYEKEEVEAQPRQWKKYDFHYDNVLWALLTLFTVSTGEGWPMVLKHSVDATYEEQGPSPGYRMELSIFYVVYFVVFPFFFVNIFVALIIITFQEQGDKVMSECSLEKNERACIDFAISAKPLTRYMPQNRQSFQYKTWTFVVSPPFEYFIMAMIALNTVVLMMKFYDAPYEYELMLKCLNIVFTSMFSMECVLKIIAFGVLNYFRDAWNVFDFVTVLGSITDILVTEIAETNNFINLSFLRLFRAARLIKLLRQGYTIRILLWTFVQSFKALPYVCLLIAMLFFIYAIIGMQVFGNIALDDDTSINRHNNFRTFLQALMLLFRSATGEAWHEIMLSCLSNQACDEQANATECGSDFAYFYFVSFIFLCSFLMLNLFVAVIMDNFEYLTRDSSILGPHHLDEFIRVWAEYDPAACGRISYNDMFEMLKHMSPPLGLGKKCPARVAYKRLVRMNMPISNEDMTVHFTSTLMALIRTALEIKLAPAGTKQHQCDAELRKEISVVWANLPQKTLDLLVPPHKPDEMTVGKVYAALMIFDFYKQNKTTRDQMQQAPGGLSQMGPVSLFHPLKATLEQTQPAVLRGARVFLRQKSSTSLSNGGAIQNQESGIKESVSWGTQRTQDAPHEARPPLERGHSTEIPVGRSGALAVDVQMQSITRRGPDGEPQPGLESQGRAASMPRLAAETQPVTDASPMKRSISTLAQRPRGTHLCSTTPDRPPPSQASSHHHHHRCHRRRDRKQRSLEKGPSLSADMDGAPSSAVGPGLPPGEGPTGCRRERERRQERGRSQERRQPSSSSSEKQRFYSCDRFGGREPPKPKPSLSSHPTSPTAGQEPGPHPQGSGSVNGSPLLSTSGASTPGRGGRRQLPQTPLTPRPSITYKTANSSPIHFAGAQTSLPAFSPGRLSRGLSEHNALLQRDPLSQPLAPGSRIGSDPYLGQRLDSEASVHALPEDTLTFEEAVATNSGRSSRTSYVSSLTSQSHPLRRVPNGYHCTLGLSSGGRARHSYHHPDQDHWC
T1 sequence (P54289 25-956 partner limits assumed): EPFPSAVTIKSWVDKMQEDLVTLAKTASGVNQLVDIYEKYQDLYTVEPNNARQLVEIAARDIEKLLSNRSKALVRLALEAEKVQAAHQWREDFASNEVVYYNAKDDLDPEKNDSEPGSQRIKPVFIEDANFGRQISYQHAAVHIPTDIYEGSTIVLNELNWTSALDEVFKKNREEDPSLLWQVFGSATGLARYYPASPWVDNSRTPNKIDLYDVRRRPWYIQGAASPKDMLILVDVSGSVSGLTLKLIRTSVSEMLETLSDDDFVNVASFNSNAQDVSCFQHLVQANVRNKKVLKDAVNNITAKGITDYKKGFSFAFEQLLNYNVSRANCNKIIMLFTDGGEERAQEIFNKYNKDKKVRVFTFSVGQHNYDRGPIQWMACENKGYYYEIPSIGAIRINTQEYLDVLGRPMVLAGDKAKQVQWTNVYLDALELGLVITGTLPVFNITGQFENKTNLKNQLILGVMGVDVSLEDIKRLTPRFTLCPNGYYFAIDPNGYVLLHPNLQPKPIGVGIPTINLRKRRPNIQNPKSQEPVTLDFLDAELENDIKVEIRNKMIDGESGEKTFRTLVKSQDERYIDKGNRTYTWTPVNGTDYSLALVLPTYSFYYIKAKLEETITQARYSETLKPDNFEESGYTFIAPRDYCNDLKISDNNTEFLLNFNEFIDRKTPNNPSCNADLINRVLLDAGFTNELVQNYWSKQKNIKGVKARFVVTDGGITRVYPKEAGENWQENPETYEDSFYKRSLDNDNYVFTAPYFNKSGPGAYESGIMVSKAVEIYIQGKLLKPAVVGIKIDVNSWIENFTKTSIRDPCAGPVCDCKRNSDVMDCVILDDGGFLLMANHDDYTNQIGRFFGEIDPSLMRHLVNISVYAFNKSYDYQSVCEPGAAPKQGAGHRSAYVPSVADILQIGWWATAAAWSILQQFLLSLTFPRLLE
T1 sequence (P54289 957-1103 partner limits assumed): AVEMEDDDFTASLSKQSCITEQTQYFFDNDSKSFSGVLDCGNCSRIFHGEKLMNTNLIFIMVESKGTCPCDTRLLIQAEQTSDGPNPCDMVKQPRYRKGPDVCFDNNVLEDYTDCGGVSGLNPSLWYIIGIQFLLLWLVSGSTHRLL
T1 sequence (P54284 whole entry partner): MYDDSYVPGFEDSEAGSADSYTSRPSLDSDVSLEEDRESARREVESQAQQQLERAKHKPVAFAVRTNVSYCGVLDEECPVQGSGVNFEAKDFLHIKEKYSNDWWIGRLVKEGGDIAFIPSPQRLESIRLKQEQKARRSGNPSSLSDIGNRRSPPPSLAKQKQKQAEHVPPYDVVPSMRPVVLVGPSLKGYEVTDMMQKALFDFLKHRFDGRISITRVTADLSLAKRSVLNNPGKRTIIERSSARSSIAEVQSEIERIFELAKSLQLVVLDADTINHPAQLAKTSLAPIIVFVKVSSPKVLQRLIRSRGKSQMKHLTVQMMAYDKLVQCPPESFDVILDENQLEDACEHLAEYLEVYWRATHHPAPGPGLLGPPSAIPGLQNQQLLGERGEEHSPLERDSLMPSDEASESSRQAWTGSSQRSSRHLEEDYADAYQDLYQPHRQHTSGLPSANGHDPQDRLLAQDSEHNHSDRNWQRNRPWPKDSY

CC(C)(C)NC(=O)[C@H](Cc1ccc(OCc2ccccc2)cc1)NC(=O)C1(c2ccccc2)CCCC1 [Example 1, (S)-1-Phenyl-cyclopentanecarboxylic acid [2-(4-benzyloxy-phenyl)-1-tert-butylcarbamoyl-ethyl]-amide]
IC50 [1]: 1200 nM

CC(C)CCN(CCC(C)C)[C@@H](Cc1ccc(OCc2ccccc2)cc1)C(=O)NC(C)(C)C.Cl [Example 3, (S)-3-(4-Benzyloxy-phenyl)-2-[bis-(3-methyl-butyl)-amino]-N-tert-butyl-propionamide monohydrochloride]
IC50 [1]: 760 nM
Number of Mice Protected from Tonic Convulsions [2, 3]: 4/5

CC(C)CCC(CCC(C)C)N[C@@H](Cc1ccc(OCc2ccccc2)cc1)C(=O)NC(C)(C)C.Cl [Example 4, (S)-3-(4-Benzyloxy-phenyl)-N-tert-butyl-2-[4-methyl-1-(3-methyl-butyl)-pentylamino]-propionamide monohydrochloride]
IMR32 % @ 1 [1]: 45%
IMR32 % @ 10 [1]: 102%

CC(C)CCN(CC1CCCCC1)[C@@H](Cc1ccc(OCc2ccccc2)cc1)C(=O)NC(C)(C)C.Cl [Example 5, (S)-3-(4-Benzyloxy-phenyl)-N-tert-butyl-2-[cyclohexyl-methyl-(3-methyl-butyl)-amino]-propionamide monohydrochloride]
IMR32 % @ 1 [1]: 27%
IMR32 % @ 10 [1]: 61%

CC(C)CCN(CCC(C)(C)C)[C@@H](Cc1ccc(OCc2ccccc2)cc1)C(=O)NC(C)(C)C.Cl [Example 6, (S)-3-(4-Benzyloxy-phenyl)-N-tert-butyl-2-[(3,3-dimethyl-butyl)-(3-methyl-butyl)-amino]-propionamide monohydrochloride]
IC50 [1]: 440 nM
Number of Mice Protected from Tonic Convulsions [2, 3]: 2/5
Number of Mice Protected from Tonic Convulsions [2, 4]: 4/5

CC(C)(C)CCN[C@@H](Cc1ccc(OCc2ccccc2)cc1)C(=O)NC(C)(C)C [Example 7, (S)-3-(4-Benzyloxy-phenyl)-N-tert-butyl-2-(3,3-dimethyl-butylamino)-propionamide monohydrochloride]
IC50 [1]: 1400 nM

CC(C)(C)CCN(CCC(C)(C)C)[C@@H](Cc1ccc(OCc2ccccc2)cc1)C(=O)NC(C)(C)C [Example 8, (S)-3-(4-Benyloxy-phenyl)-2-[bis-(3,3-dimethyl-butyl)-amino]-N-tert-butyl-propionamide monohydrochloride]
IC50 [1]: 790 nM

CC(C)(C)NC(=O)[C@H](Cc1ccc(OCc2ccccc2)cc1)NCc1ccc(C(C)(C)C)cc1 [Example 9, (S)-3-(4-Benzyloxy-phenyl)-N-tert-butyl-2-(4-tert-butyl-benzylamino)-propionamide monohydrochloride]
IC50 [1]: 2000 nM

CC(C)(C)c1ccc(CN(Cc2ccc(C(C)(C)C)cc2)[C@@H](Cc2ccc(OCc3ccccc3)cc2)C(=O)NCCN2CCCCC2)cc1 [Example 10, (S)-3-(4Benzyloxy-phenyl)-2-[bis-(4-tert-butyl-benzyl)-amino]-N-(2-piperidin-1-yl-ethyl)-propionamide]
IC50 [1]: 680 nM

CC(C)(C)c1ccc(CN(Cc2ccc(C(C)(C)C)cc2)C(CNCCN2CCCCC2)Cc2ccc(OCc3ccccc3)cc2)cc1 (centres unmarked) [Example 11, 3-(4-Benzyloxy-phenyl)-N^2, N^2-bis-(4-tert-butyl-benzyl)-N^1-(2-piperidin-1-yl-ethyl)-propane-1,2-diamine]
IC50 [1]: 170 nM

CC(C)(C)c1ccc(CNC(CNCCN2CCCCC2)Cc2ccc(OCc3ccccc3)cc2)cc1 (centres unmarked) [Example 12, 3-(4-Benzyloxy-phenyl)-N^2-(4-tert-butyl-benzyl)-N^1-(2-piperidin-1-yl-ethyl)-propane-1,2-diamine]
IC50 [1]: 280 nM
Number of Mice Protected from Tonic Convulsions [2, 5]: 0/5

CC(C)(C)c1ccc(CN[C@@H](Cc2ccc(OCc3ccccc3)cc2)C(=O)NCCN2CCCCC2)cc1 [Example 13, (S)-3-(4-Benzyloxy-phenyl)-2-(4-tert-butyl-benzylamino)-N-(2-piperidin-1-yl-ethyl)-propionamide]
IC50 [1]: 700 nM
Number of Mice Protected from Tonic Convulsions [2, 5]: 0/5
Number of Mice Protected from Tonic Convulsions ([2]; 10 mg/kg IV, 45 minutes post treatment): 1/5
Number of Mice Protected from Tonic Convulsions [2, 3]: 4/5
Number of Mice Protected from Tonic Convulsions [2, 4]: 4/5

CC(C)(C)NCC(Cc1ccc(OCc2ccccc2)cc1)NCc1ccc(C(C)(C)C)cc1 (centres unmarked) [Example 14, 3-(4-Benzyloxy-phenyl)-N^1-tert-butyl-N^2-(4-tert-butyl-benzyl)-propane-1,2-diamine]
IC50 [1]: 450 nM
Number of Mice Protected from Tonic Convulsions [2, 3]: 5/5
Number of Mice Protected from Tonic Convulsions [2, 4]: 4/5

(S)-3-(4-Benzyloxy-phenyl)-N-tert-butyl-2-(3-methyl-butylamino)-propionamide monohydrochloride [Example 2]
IC50 [1]: 2000 nM
